Source: PMC13144739, “Global analysis of cancer cell responses to USP9X inhibition” (The EMBO Journal, 2026)

Columns and labels:
[1] = biological target: T1, USP9X catalytic domain (Homo sapiens, UniProt Q93008); assay: K48-linked di-ubiquitin cleavage assay; format: biochemical; conditions: reported USP9X inhibitors; Appendix Fig. S1B,E (diUb cleavage 150 µM, Ub-Rho)
T1 construct: His/SUMO (pOPIN-S vector) (N, cleaved yes); made in house; host or cells: E. coli BL21
T1 sequence (Q93008 1551-1970): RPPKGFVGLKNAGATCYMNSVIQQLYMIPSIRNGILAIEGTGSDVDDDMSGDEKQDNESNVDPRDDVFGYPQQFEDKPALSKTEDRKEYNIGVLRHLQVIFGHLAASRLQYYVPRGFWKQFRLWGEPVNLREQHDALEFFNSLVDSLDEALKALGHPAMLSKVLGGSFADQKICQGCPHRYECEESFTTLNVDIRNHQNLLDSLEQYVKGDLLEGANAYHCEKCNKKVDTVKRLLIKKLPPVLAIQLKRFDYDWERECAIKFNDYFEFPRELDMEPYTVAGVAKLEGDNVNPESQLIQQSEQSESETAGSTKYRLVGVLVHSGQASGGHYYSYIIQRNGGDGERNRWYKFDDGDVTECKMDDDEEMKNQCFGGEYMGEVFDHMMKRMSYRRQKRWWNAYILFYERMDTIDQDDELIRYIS
Experimental: For inhibitor activity assays, USP9X catalytic domain (di-ubiquitin cleavage assay: 750 nM, ubiquitin-probe assays: 2.5 µM) was pre-incubated with USP9X inhibitors for 30 min at ambient temperature and subsequently mixed with di-ubiquitin (final concentration 2 µM) in assay buffer (25 mM Tris [pH 8.0], 150 mM NaCl, 10 mM DTT) at pH 8.0 or was mixed with ubiquitin-propargylamide (Ub-PA)/ubiquitin-vinyl sulfonate (Ub-VS) probes at a final concentration of 10 µM in assay buffer. For both assays, the mixture was incubated over a time course, and the reaction was stopped by mixing samples with 2× LDS sample buffer (Invitrogen) supplemented with 3% (v/v) 2-mercaptoethanol. All protein samples were run on a 4–12% Bis-Tris SDS-PAGE gradient gel (Invitrogen) for 60 min at 140 V. The gel was stained with InstantBlue® (Abcam) and imaged.

[2] = test system: human dermal fibroblasts (HDF); assay: IncuCyte live-cell imaging cell death, HDF; format: cell-based; conditions: 50 µM (Appendix Fig. S4E)
Experimental: Cells were seeded at varying densities (1000–8000 cells per well) after initial optimisation in a 96-well tissue culture-treated plate (Thermo Fisher Scientific). Cells were incubated o/n, and the next day, inhibitors and controls diluted in cell media were added to the cells to a final volume of 200 μL per well. Cell death was measured using PI (Sigma-Aldrich). Cells were imaged with four images per well every 2 h for up to 96 h using the IncuCyte live-cell analysis system (S3, Sartorius). Cell proliferation data were analysed using Microsoft Excel by normalising confluence to control conditions. For cell killing readouts, the number of PI-positive cells was normalised to the control conditions for each timepoint.

[3] = biological target: T1, USP9X catalytic domain; assay: Ub-Rho cleavage assay; format: biochemical; conditions: Ub-Rho cleavage, recombinant USP9X catalytic domain (WT)
Experimental: The reaction was stopped through the addition of 10 mM citric acid. The assay was performed in 384-well format with a total reaction volume of 16 µL. Data was collected using the ClarioSTAR plate reader (BMG Labtech) at an emission of 535 nm. […] IC50 values presented in our study are the mean of three independent biological repeats unless indicated otherwise.

[4] = biological target: T1, USP9X catalytic domain; assay: SPR binding assay
Experimental: Next, the sample was desalted using PD midiTrap™ G-25 (GE Healthcare) columns following the manufacturer’s instructions and was further purified by SEC, concentrated, and stored at -80 °C. Enzyme activity was tested in a ubiquitin-probe assay. SPR experiments were performed on a Biacore 8 K+ instrument (Cytiva). USP9X catalytic domain with a C-terminal AviTag™ was immobilised in 10 mM HEPES, 150 mM NaCl at pH 7.4 on a Series S Sensor Chip SA (Cytiva) by coupling. […] Running buffer was supplemented with 2% (v/v) DMSO. Multi-cycle kinetics were performed with 120 s associations and 600 s dissociations at 30 µL/min with no further regeneration. Binding constants were determined in Biacore Insight evaluation software (v5.0.18) at steady state, taking the median response over a 5-s window beginning at 10 s before the end of the association phase. Final KD values are the mean of three independent experiments.

IC50 [3] | Kd ([4]; SPR, steady state, mean of three repeats, read-out: KD (steady state affinity)) | SPR kinetic fitting (on-rate/off-rate) ([4]; compared with the WEHI compound series / WEHI-092) | SMILES | effects on the purified USP9X catalytic domain [1] | toxicity to HDFs [2]
– | – | – | CCCC(NC(=O)/C(C#N)=C/c1nc(Cl)ccc1Cl)c1ccc(OCCN2CCOCC2)cc1 (centres unmarked) [EOAI3402143] | no or weak effects | cytotoxic
4.3 µM | 3.51 ± 0.58 µM | much faster off-rate | O=C(c1ccc2[nH]ccc2c1)N1CCN(S(=O)(=O)c2ccc3c(c2)OCCO3)CC1 [WEHI-680] | – | –
> 100 µM | – | – | O=S(=O)(c1ccc2c(c1)OCCO2)N1CCN(c2ccc(-c3ccccc3)nn2)CC1 [WEHI-871] | – | –
– | – | – | CCC[C@H](NC(=O)/C(C#N)=C/c1cccc(Br)n1)c1ccccc1 [WP1130] | no or weak effects | cytotoxic
